From US9730937B2, “RAF kinase modulator compounds and methods of use thereof” (AMBIT BIOSCIENCES CORPORATION, priority 2008, dated 2017) come the findings set out here.

For test [1], the system named is panel of 290 distinct kinases (321 in the larger panel), excluding mutant variants. As to conditions: kinase selectivity score, class symbols.
For test [2], the target named is wild type BRAF kinase (Homo sapiens (Human), UniProt P15056). As to conditions: read-out: BRAF WT Kd, class symbols.
Test [3] addresses RAF kinases (Homo sapiens (Human), UniProt P04049). As to conditions: read-out: RAF1 Kd, class symbols.
Test [4] concerns the target mutant BRAF kinase (Homo sapiens (Human), UniProt P15056, V600E). The following applies: read-out: BRAF V600E Kd, class symbols.
Where [5] appears, read: value marked * (larger kinase panel).

Each structure is given as a SMILES string. Where a name gives a salt, the structure may show the parent alone. Read-outs that look alike come from different tables or passages of the source.

Sequence of wild type BRAF kinase (P15056 whole entry): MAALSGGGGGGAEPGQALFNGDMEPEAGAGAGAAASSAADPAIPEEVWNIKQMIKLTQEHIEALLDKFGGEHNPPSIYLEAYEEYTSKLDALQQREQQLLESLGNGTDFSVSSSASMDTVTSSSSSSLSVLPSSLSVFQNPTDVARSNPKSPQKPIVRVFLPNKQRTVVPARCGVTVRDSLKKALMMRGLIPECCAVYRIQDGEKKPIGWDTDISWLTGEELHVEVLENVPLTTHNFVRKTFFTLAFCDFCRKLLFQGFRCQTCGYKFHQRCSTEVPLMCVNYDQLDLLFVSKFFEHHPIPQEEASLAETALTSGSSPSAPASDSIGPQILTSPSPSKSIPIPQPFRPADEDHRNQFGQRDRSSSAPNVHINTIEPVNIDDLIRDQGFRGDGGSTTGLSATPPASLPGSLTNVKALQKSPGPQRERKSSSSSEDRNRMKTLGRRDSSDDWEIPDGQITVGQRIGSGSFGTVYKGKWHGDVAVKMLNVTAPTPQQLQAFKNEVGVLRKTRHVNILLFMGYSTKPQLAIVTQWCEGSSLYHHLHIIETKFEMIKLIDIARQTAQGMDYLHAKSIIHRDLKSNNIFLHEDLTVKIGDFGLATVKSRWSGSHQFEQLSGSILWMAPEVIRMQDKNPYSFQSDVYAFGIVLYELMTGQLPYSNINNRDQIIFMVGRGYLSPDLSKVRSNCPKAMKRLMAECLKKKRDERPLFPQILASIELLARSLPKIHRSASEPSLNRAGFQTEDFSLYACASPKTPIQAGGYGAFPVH
Sequence of mutant BRAF kinase (P15056 whole entry V600E): as the sequence (P15056 whole entry) above, with V600E counted along it
Sequence of RAF kinases (P04049 whole entry): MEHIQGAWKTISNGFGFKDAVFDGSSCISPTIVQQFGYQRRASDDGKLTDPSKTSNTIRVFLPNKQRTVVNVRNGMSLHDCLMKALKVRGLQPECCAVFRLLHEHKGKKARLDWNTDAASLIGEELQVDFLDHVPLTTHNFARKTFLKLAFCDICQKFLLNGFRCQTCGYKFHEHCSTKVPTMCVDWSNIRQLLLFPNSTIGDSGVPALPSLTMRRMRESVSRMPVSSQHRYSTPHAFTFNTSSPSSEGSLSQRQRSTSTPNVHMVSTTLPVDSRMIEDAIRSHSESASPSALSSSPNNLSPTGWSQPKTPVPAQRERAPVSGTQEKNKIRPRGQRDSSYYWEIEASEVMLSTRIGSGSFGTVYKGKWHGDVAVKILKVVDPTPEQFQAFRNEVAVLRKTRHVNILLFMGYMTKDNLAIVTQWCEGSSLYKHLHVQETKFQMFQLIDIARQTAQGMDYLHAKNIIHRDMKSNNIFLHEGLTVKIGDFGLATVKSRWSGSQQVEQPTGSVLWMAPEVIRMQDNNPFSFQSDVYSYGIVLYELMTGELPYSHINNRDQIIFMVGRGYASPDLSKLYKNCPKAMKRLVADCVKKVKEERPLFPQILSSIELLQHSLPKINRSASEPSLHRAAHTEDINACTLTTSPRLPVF

In general, Kd refers to the constant that tells how readily two partners part at equilibrium. Consider `COc1ccc2ncnc(Sc3cccc(NC(=O)Nc4cc(C(C)(C)C)on4)c3)c2c1` [Ex 49, 1-(5-tert-butylisoxazol-3-yl)-3-(3-(6-methoxyquinazolin-4-ylthio)phenyl)urea], for which, in test [1] (290 distinct kinases), the S35 result is listed as “C (0.20 < C ≦ 0.40)”. Also, in test [2], the Kd was more than 1000 nM.

In the case of `COc1cc2ncnc(Sc3cccc(NC(=O)Nc4cc(C(C)(C)C)on4)c3)c2cc1OCCN1CCOCC1` [Ex 70, 1-(5-tert-butylisoxazol-3-yl)-3-(3-(7-methoxy-6-(2-morpholinoethoxy)quinazolin-4-ylthio)phenyl)urea], the S35 result in test [1] (290 distinct kinases) is on record as “C (0.20 < C ≦ 0.40)”. For the same compound, the Kd in test [3] and in test [4] was less than 250 nM in each case.

Consider `COc1cc2c(Sc3cccc(NC(=O)Nc4cc(C(C)(C)C)on4)c3)ncnc2cc1OCCCN1CCC(CO)CC1` [Ex 74, 1-(5-tert-butylisoxazol-3-yl)-3-(3-(7-(3-(4-(hydroxymethyl)piperidin-1-yl)propoxy)-6-methoxyquinazolin-4-ylthio)phenyl)urea], for which, in test [1] (290 distinct kinases), the S35 entry is reported as “D (D > 0.40)”. In addition, the Kd in test [3] and in test [4] was less than 250 nM throughout.

Regarding `COc1cc2c(Sc3cccc(NC(=O)Nc4cc(C(C)(C)C)on4)c3)ncnc2cc1OCCN1CCC(CO)CC1` [Ex 86, 1-(5-tert-butylisoxazol-3-yl)-3-(3-(7-(2-(4-(hydroxymethyl)piperidin-1-yl)ethoxy)-6-methoxyquinazolin-4-ylthio)phenyl)urea], the S35 result in test [1] (290 distinct kinases) is “C (0.20 < C ≦ 0.40)”. Besides, the Kd in test [2] was more than 1000 nM.

In the case of `COCCOc1ccc2ncnc(Sc3cccc(NC(=O)Nc4cc(C(C)(C)C)on4)c3)c2c1` [Ex 87, 1-(5-tert-butylisoxazol-3-yl)-3-(3-(6-(2-methoxyethoxy)quinazolin-4-ylthio)phenyl)urea], the S35 entry in test [1] (290 distinct kinases) is “C (0.20 < C ≦ 0.40)”. The Kd in test [2] was more than 1000 nM.

Consider `COc1cc(OC2CCOCC2)c2c(Oc3cccc(NC(=O)Nc4cc(C(C)(C)C)on4)c3)ncnc2c1` [Ex 94, 1-(5-tert-butylisoxazol-3-yl)-3-{3-[7-methoxy-5-(tetrahydro-2H-pyran-4-yloxy)quinazolin-4-yloxy]phenyl}urea], for which the S35 entry in test [1] (290 distinct kinases) was “C (0.20 < C ≦ 0.40)”. In addition, in test [2], the Kd is more than 1000 nM.

Take `COc1cc2c(Oc3cccc(NC(=O)Nc4cc(C(C)(C)C)on4)c3)ncnc2cc1O[C@H]1CCNC1` [Ex 96, (S)-1-(5-tert-butylisoxazol-3-yl)-3-(3-(6-methoxy-7-(pyrrolidin-3-yloxy)quinazolin-4-yloxy)phenyl)urea dihydrochloride]: the S35 entry in test [1] (290 distinct kinases) is given as “C (0.20 < C ≦ 0.40)”. For the same compound, the Kd in test [3] and in test [4] was less than 250 nM each time.

For `COc1cc2c(Oc3cccc(NC(=O)Nc4cc(C(C)(C)C)on4)c3)ncnc2cc1O[C@@H]1CCNC1` [Ex 98, (R)-1-(5-tert-butylisoxazol-3-yl)-3-(3-(6-methoxy-7-(pyrrolidin-3-yloxy)quinazolin-4-yloxy)phenyl)urea dihydrochloride], in test [1] (290 distinct kinases), the S35 result is “C (0.20 < C ≦ 0.40)”. Further, the Kd in test [3] and in test [4] was less than 250 nM throughout.

As for `COc1cc2ncnc(Oc3cccc(NC(=O)Nc4cc(C(C)(C)C)on4)c3)c2cc1O` [Ex 107, 1-(5-tert-butylisoxazol-3-yl)-3-(3-(6-hydroxy-7-methoxyquinazolin-4-yloxy)phenyl)urea], in test [1] (290 distinct kinases), the S35 entry is on record as “C (0.20 < C ≦ 0.40)”. Further, the Kd in test [3] and in test [4] was less than 250 nM each time.

For the compound `COc1cc2ncnc(Oc3cccc(NC(=O)Nc4cc(C(C)(C)C)on4)c3)c2cc1O[C@H]1CCN(CC(F)F)C1` [Ex 110, (S)-1-(5-tert-butylisoxazol-3-yl)-3-(3-(6-(1-(2,2-difluoroethyl)pyrrolidin-3-yloxy)-7-methoxyquinazolin-4-yloxy)phenyl)urea], the S35 result in test [1] (290 distinct kinases) was “C (0.20 < C ≦ 0.40)”. The Kd in test [3] and in test [4] was less than 250 nM each time.

In the case of `COc1cc2ncnc(Oc3cccc(NC(=O)Nc4cc(C(C)(C)C)on4)c3)c2cc1OC[C@@H](O)CN1CCN(C)CC1` [Ex 111, (S)-1-(5-tert-butylisoxazol-3-yl)-3-(3-(6-(2-hydroxy-3-(4methylpiperazin-1-yl)propoxy)-7-methoxyquinazolin-4-yloxy)phenyl)urea], the S35 result in test [1] (290 distinct kinases) is “D (D > 0.40)”. In addition, the Kd in test [3] and in test [4] was less than 250 nM each time.

Turning to `COc1cc2ncnc(Oc3cccc(NC(=O)Nc4cccc(C(C)(C)C)c4)c3)c2cc1OC` [Ex 118, 1-(3-tert-butylphenyl)-3-(3-(6,7-dimethoxyquinazolin-4-yloxy)phenyl)urea], the S35 result in test [1] (setting [5]) is listed as “C* (0.20 < C ≦ 0.40)”. In addition, the Kd in test [3] and in test [4] was less than 250 nM throughout.

Regarding `COc1cc2ncnc(Sc3cccc(NC(=O)Nc4cccc(C(C)(C)C)c4)c3)c2cc1OC` [Ex 120, 1-(3-tert-butylphenyl)-3-(3-(6,7-dimethoxyquinazolin-4-ylthio)phenyl)urea], in test [1] (setting [5]), the S35 result is “C* (0.20 < C ≦ 0.40)”. Moreover, the Kd in test [3] and in test [4] was less than 250 nM in each case.

With `COc1cc2ncnc(Oc3cccc(NC(=O)Nc4cc(C5CCOCC5)no4)c3)c2cc1OC` [Ex 123, 1-(3-(6,7-dimethoxyquinazolin-4-yloxy)phenyl)-3-(3-(tetrahydro-2H-pyran-4-yl)isoxazol-5-yl)urea], in test [1] (290 distinct kinases), the S35 entry was “B (0.10 < B ≦ 0.20)”. For the same compound, the Kd in test [2] is more than 1000 nM.

Take `COCCOc1cc(NC(=O)Nc2cccc(Oc3ncnc4cc(OC)c(OC)cc34)c2)cc(C(F)(F)F)c1` [Ex 129, 1-(3-(6,7-dimethoxyquinazolin-4-yloxy)phenyl)-3-(3-(2-methoxyethoxy)-5-(trifluoromethyl)phenyl)urea]: in test [1] (290 distinct kinases), the S35 result is reported as “B (0.10 < B ≦ 0.20)”. Further, in test [2], the Kd is more than 1000 nM.

`COc1cc2ncnc(Oc3cccc(NC(=O)Nc4cc(C(C)(C)CO)on4)c3)c2cc1OC` [Ex 131, 1-(3-(6,7-dimethoxyquinazolin-4-yloxy)phenyl)-3-(5-(1-hydroxy-2-methylpropan-2-yl)isoxazol-3-yl)urea]: the S35 entry in test [1] (290 distinct kinases) is recorded as “C (0.20 < C ≦ 0.40)”. The equilibrium dissociation constant (Kd) in test [3] and in test [4] was less than 250 nM in each case.

As for `COc1cc2ncnc(Oc3cccc(NC(=O)Nc4ccc(OC)c(C(F)(F)F)c4)c3)c2cc1OC` [Ex 138, 1-(3-(6,7-dimethoxyquinazolin-4-yloxy)phenyl)-3-(4-methoxy-3-(trifluoromethyl)phenyl)urea], the S35 entry in test [1] (290 distinct kinases) is listed as “B (0.10 < B ≦ 0.20)”. The Kd in test [3] and in test [4] was less than 250 nM throughout.

On to `COc1cc2ncnc(Oc3cccc(NC(=O)Nc4cc(Cl)cc(C(F)(F)F)c4)c3)c2cc1OC` [Ex 140, 1-(3-chloro-5-(trifluoromethyl)phenyl)-3-(3-(6,7-dimethoxyquinazolin-4-yloxy)phenyl)urea], for which, in test [1] (290 distinct kinases), the S35 result is given as “B (0.10 < B ≦ 0.20)”. For the same compound, the Kd in test [2] is more than 1000 nM.

Regarding `COc1cc2ncnc(Oc3cccc(NC(=O)Nc4cccc(C(C)C)c4)c3)c2cc1OC` [Ex 144, 1-(3-(6,7-dimethoxyquinazolin-4-yloxy)phenyl)-3-(3-isopropylphenyl)urea], the S35 entry in test [1] (setting [5]) was “C* (0.20 < C ≦ 0.40)”. Also, the Kd in test [3] and in test [4] was less than 250 nM throughout.

Regarding `COc1cc2ncnc(Oc3cccc(NC(=O)Nc4cc(C(C)(CF)CF)on4)c3)c2cc1OC` [Ex 162, 1-[5-(1,3-difluoro-2-methylpropan-2-yl)isoxazol-3-yl]-3-[3-(6,7-dimethoxyquinazolin-4-yloxy)phenyl]urea], in test [1] (setting [5]), the S35 result is recorded as “C* (0.20 < C ≦ 0.40)”. The Kd in test [3] and in test [4] was less than 250 nM in each case.

In the case of `COc1cc2ncnc(Oc3cccc(NC(=O)Nc4ccc(OC(F)(F)F)cc4)c3)c2cc1OC` [Ex 177, 1-(3-(6,7-dimethoxyquinazolin-4-yloxy)phenyl)-3-(4-(trifluoromethoxy)phenyl)urea], in test [1] (290 distinct kinases), the S35 entry is “C (0.20 < C ≦ 0.40)”. Further, the Kd in test [3] and in test [4] was less than 250 nM in each case.

As to `COc1cc2ncnc(Oc3cccc(NC(=O)Nc4ccc(C(F)(F)F)cc4)c3)c2cc1OC` [Ex 183, 1-(3-(6,7-dimethoxyquinazolin-4-yloxy)phenyl)-3-(4-(trifluoromethyl)phenyl)urea], the S35 entry in test [1] (setting [5]) is given as “C* (0.20 < C ≦ 0.40)”. Moreover, the Kd in test [3] and in test [4] was less than 250 nM each time.

`COc1cc2ncnc(Sc3cccc(NC(=O)Nc4cccc(C(F)(F)F)c4)c3)c2cc1OC` [Ex 185, 1-(3-(6,7-dimethoxyquinazolin-4-ylthio)phenyl)-3-(3-(trifluoromethyl)phenyl)urea]: the S35 entry in test [1] (setting [5]) is reported as “C* (0.20 < C ≦ 0.40)”. The Kd in test [3] and in test [4] was less than 250 nM each time.

`COc1cc2ncnc(Sc3cccc(NC(=O)Nc4cc(C(C)(C)F)no4)c3)c2cc1OC` [Ex 187, 1-(3-(6,7-dimethoxyquinazolin-4-ylthio)phenyl)-3-(3-(2-fluoropropan-2-yl)isoxazol-5-yl)urea]: the S35 entry in test [1] (setting [5]) is given as “C* (0.20 < C ≦ 0.40)”. Also, the Kd in test [3] and in test [4] was less than 250 nM each time.

As for `COc1cc2ncnc(Sc3cccc(NC(=O)Nc4cc(C(C)(CF)CF)on4)c3)c2cc1OC` [Ex 191, 1-[5-(1,3-difluoro-2-methylpropan-2-yl)isoxazol-3-yl]-3-[3-(6,7-dimethoxyquinazolin-4-ylthio)phenyl]urea], the S35 result in test [1] (setting [5]) was “C* (0.20 < C ≦ 0.40)”. The Kd in test [3] and in test [4] was less than 250 nM in each case.

For the compound `COc1cc2ncnc(Sc3cccc(NC(=O)Nc4cc(C5CCCC5)on4)c3)c2cc1OC` [Ex 201, 1-(5-Cyclopentylisoxazol-3-yl)-3-(3-(6,7-dimethoxyquinazolin-4-ylthio)phenyl)urea], the S35 entry in test [1] (setting [5]) is on record as “C* (0.20 < C ≦ 0.40)”. Besides, the Kd in test [3] and in test [4] was less than 250 nM throughout.
